Measured values from PMC12533803, “Rotenoids from the Roots of Vicia faba L. (Fabaceae): Structural Characterization, Cytotoxic Effects, and Molecular Docking” (Chemistry & Biodiversity, 2025).

How the values were obtained:
[1] = system: NIH/3T3 (mouse embryonic fibroblast) cell line; assay: MTT cytotoxicity assay, non-tumor NIH/3T3; type: cell-based; conditions: for cytotoxic activity NIH/3T3: 0.0032 to 50 µM, 72 h
Protocol: (§1) ATCC CCL 247), 501Mel (melanoma; RRID: CVCL_4633), and MCF‐7 (breast adenocarcinoma; ATCC HTB 22), along with non‐tumor cells line NIH/3T3 (mouse embryonic fibroblast; ATCC CRL 1658). […] Cells were kept at 37°C in a humidified atmosphere containing 5% CO2. […] At the end of the incubation period, the culture medium was replaced with a fresh medium containing MTT solution (0.5 mg/mL) and further incubated for 3 h. The MTT solution was then removed, and the formazan crystals formed were dissolved in 150 µL of DMSO. Absorbance for each well was measured at 570 nm, and then the values thereof were normalized in the percentage of viable cells based on that of the negative control.

[2] = system: HCT‐116 (human colorectal carcinoma) cell line; assay: MTT cytotoxicity assay, HCT-116; type: cell-based; conditions: for cytotoxic activity HCT‐116: MTT, 0.0032 to 50 µM, 72 h
Protocol: as §1

[3] = system: 501Mel (melanoma) cell line; assay: MTT cytotoxicity assay, 501Mel; type: cell-based, human; conditions: for cytotoxic activity 501Mel: 0.0032 to 50 µM, 72 h
Protocol: as §1

[4] = system: MCF‐7 (breast adenocarcinoma) cell line; assay: MTT cytotoxicity assay, MCF-7; type: cell-based, human; conditions: for cytotoxic activity MCF‐7: MTT, 0.0032 to 50 µM, 72 h
Protocol: as §1

With `COc1ccc(-c2coc3cc(OC)c(O)cc3c2=O)cc1` [Compound 2, Alfalone] the “cytotoxic activity NIH/3T3” value [1] was “no cytotoxic activity”, the “cytotoxic activity HCT‐116” value [2] was “no cytotoxic activity” and the “cytotoxic activity 501Mel” value ([3]; MTT) was “no cytotoxic activity”. For the same compound, the “cytotoxic activity MCF‐7” value [4] was “no cytotoxic activity”.

With `COc1ccc(-c2coc3c(OC)c(O)ccc3c2=O)cc1` [Compound 3, 8‐O‐methylretusin] the “cytotoxic activity NIH/3T3” value [1] was “no cytotoxic activity”, the “cytotoxic activity HCT‐116” value [2] was “no cytotoxic activity” and the “cytotoxic activity 501Mel” value ([3]; MTT) was “no cytotoxic activity”. For the same compound, the “cytotoxic activity MCF‐7” value [4] was “no cytotoxic activity”.

`COc1cccc2c1C(=O)c1c(O)c3c(c(O)c1C2=O)C[C@@](O)(C(=O)CO)C[C@@H]3O[C@H]1C[C@H](N)[C@H](O)[C@H](C)O1` [Doxorubicin, reference compound] was tested, and the IC50 ([1]; Mus musculus, NIH3T3, 72 h incubation, non-tumor cells) was 350 nM, the “Selectivity Index (SI) HCT‐116” value ([2]; HCT-116 versus NIH/3T3) was 7.0 and the “Selectivity Index (SI) 501Mel” value ([3]; 501Mel versus NIH/3T3) was 2.91. For the same compound, the IC50 ([3]; Homo sapiens, MTT, 72 h incubation) was 120 nM and the “Selectivity Index (SI) MCF‐7” value ([4]; MCF-7 versus NIH/3T3) was 11.67.
